The text below walks through data of paper PMC11722313 (bioRxiv, 2025).

Series [1] deals with IDE. Description: Cryo-EM of IDE in the presence of sub-saturating insulin. Further details: species or system human.
In series [2] the test system is IDE. The settings on record: time-resolved SAXS; ref Zhang et al., 2018; cited from earlier work.
Series [3] relates to IDE. The settings on record: HDX-MS; ref Zhang et al, 2018; cited from earlier work.
For series [4], the target named is IDE R668A (human insulin degrading enzyme, cysteine-free) (Homo sapiens, UniProt P14735, C110L/C171S/C178A/C257V/C414L/C573N/C590S/C789S/C812A/C819A/C904S/C966N/C974A/R668A). Description: Competition assay: inhibition of MCA-[…]. Format: biochemical. Conditions: 5 nM IDE R668A, 5 μM MCA-RPPGFSAFK(Dnp), pH 7.5, 37° C; average of three technical replicates.
Series [5] is described as follows: SEC-SAXS of IDE constructs. The format is physicochemical, human. The settings on record: Guinier method.
Series [6] is described as follows: Size-exclusion chromatography elution of IDE constructs. The format is physicochemical, human. Conditions: S200 SEC column.
The mark [7] stands for this setting: IDE:insulin 2:1, compared with previously reported O and pO states.

Chain of IDE R668A (human insulin degrading enzyme, cysteine-free) (P14735 42-1019 C110L/C171S/C178A/C257V/C414L/C573N/C590S/R668A/C789S/C812A/C819A/C904S/C966N/C974A limits assumed): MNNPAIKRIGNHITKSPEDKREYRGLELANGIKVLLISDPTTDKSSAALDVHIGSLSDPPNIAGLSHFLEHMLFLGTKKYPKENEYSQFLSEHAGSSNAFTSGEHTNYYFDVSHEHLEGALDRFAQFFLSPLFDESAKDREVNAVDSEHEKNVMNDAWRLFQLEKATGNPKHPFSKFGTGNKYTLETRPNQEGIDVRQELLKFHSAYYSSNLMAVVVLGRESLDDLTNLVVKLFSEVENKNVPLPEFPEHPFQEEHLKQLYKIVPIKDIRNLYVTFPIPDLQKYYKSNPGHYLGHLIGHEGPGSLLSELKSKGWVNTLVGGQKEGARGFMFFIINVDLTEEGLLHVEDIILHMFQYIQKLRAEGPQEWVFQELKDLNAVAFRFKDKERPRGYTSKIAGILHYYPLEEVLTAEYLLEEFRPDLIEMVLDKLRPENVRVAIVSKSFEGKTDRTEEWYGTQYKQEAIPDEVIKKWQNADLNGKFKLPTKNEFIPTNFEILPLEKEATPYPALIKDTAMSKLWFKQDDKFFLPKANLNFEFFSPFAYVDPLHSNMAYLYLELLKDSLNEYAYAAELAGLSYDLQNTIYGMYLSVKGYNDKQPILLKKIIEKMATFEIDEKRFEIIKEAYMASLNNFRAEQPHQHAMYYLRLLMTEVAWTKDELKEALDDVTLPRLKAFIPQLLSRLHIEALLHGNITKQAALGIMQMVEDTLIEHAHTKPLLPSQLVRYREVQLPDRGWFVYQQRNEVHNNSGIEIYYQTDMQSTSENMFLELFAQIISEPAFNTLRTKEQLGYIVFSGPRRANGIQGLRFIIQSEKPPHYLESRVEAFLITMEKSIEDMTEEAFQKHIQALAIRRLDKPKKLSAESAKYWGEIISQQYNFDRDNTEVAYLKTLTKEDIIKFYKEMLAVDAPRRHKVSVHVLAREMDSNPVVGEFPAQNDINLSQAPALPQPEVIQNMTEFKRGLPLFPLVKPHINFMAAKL

With “insulin: IDE substrate; purchased from MP Biomedicals (#0219390010) for enzymatic assays, SIGMA (91077C) for cryo-EM”, in series [1] (setting [7]), the “closing of pO and O subunits in presence of insulin (D1-D4 COM distance)” value was 3–5 Å; the “reduction of D1-D2-D3-D4 COM dihedral in presence of insulin” value is listed as 5–10 °. For the same molecule, the “dominant IDE state with sub-saturating insulin” value in series [1] (IDE:insulin molar ratio 2:1, cryo-EM) is reported as “the pC/pC was still found to be dominant”. In addition, the “time constant tau for the insulin induced open to closed transition” value in series [2] was ~ 100 milliseconds.

Take `O=C(C[C@@H](Cc1ccc2ccccc2c1)n1cc(CNC(=O)c2ccc(F)cc2)nn1)NO` [BDM-44768]: the “deuterium exchange of the R668-containing peptide vs apo-IDE” value in series [3] was “the peptide containing R668 shows reduced deuterium exchange relative to apo-IDE”.

For “Aβ(1–40): amyloid-β 1–40, an unstructured substrate of IDE”, the “competition of MCA-RPPGFSAFK(Dnp) degradation, IDE R668A (in words)” value in series [4] is “did not exhibit a dose-dependent response to the presence of Aβ and the data could not be fit to any kinetic equation”.

As for “R668A: IDE carrying a R668 to alanine (R668A) point mutation”, in series [5], the “Rg (Guinier)” value is listed as 54.7 +/− 0.4 Å. Also, the “SEC elution relative to WT IDE” value in series [6] is listed as “eluted slightly earlier than WT IDE”.
